According to patent US20120277312A1, “Ethylgallate and Related Compounds as a Treatment for Sepsis and Septic Shock” (priority 2009, published 2012):
Marks after values point to notes of the source that are not given here.

How the values were obtained:
[1] = tested on: Escherichia coli septic shock in dogs; experiment: In-vivo model of Escherichia coli septic shock in dogs; parameters: species or system dog; settings: for PCO2: arterial; for Urine-volume: per hour
Excerpt: We have thus far studied 5 dogs in septic shock in which ethyl gallate was infused. We have compared the results obtained in this group with those found in septic animals (n=5) in which this treatment was not given. In addition, in preliminary experiments, we have looked at the effect of ethyl gallate infusion on hemodynamics in non-septic animals (n=3). In a time control non-septic group in which placebo (normal saline solution) was given, we have studied one animal.
The E coli model used in the studies was identical to that previously described (2). Sepsis was induced by the intravenous infusion of 10^10 colony forming units of live E coli (designation 011:B4). The bacteria were suspended in normal saline solution and were given over 0.5 hour. A constant infusion of approximately 5×10^9 colony forming units/hour of E coli was then maintained over the duration of the two studies.
The animals (16-24 kg) were initially anesthetized with thiopental sodium (20 mg/kg, intravenously) and constantly infused with sufentanil citrate (1-3 μg/min) and midazolam (5 μg/kg/min) (2). Drug rates were adjusted as required to abolish the palpebral reflex. The animals were placed in the supine position; the trachea was […] with an endotracheal tube; and the lungs were mechanically ventilated at a tidal volume of 20 ml/kg. The ventilator rate was initially set to maintain blood pH at approximately 7.35. The rate was increased as necessary to reverse the metabolic acidosis that developed over the course of the study. Approximately 100% oxygen was inspired, so that hypoxemia would not affect the results of the study.
Under sterile conditions and by percutaneous techniques (Arrow International, Reading, Pa.) (2), a thermister tipped catheter was advanced from the right jugular vein into the pulmonary artery to measure mean pulmonary arterial pressure (Ppa), mean pulmonary capillary wedge pressure (Pwp), mean right atrial pressure (Rap), and thermodilution cardiac output (CO) (Edwards Lifesciences, Irvine, Calif.). Another introducer was placed into the left jugular vein for administration of intravenous saline solution, the E coli infusion, and the treatment or placebo drugs. A catheter was placed into the bladder through the urethra to measure urine output over the course of the study. A polyethylene catheter was percutaneously placed into the femoral artery to measure MAP and to obtain samples of blood for arterial PO2, PCO2, pH, hematocrit (Hct), serum electrolytes and creatinine, liver function tests, and lactate concentrations. The laboratory tests were performed by the clinical laboratories at the Health Sciences Centre.
All vascular catheters were connected to transducers (Cobe, Argon Medical Devices Inc, Athens, Tex.), were referenced relative to the left atrium, and were connected to a chart recorder (Astro-Med, W Warwick, R.I.) (2). Heart rate (HR) was measured from the recorder tracing. Stroke-volume (SV) was calculated as CO/HR. Systemic vascular resistance (SVR) was calculated from [(MAP−Pra)/CO]*80.
Stroke work (SW) was our primary index of cardiac performance and the primary hemodynamic endpoint chosen (2). At constant preload, SW reflects both the decrease in afterload and the change in contractile function that accompany sepsis. SW was determined at approximately the same Pwp at each measurement interval. The baseline Pwp usually averaged ≈8-10 mmHg, and normal saline solution was given as necessary to maintain Pwp constant over the experimental period. SW was calculated from SV*(MAP−Pwp).
The purpose of this study was to determine whether ethyl-gallate could reverse the fall in MAP that occurs in this sepsis model. Ethyl gallate was infused after MAP pressure fell approximately 30 to 40% from the baseline value in which this decline in MAP was not responsive to volume infusion to return Pwp to the baseline value (septic shock condition). […]

[2] = tested on: lysozyme-induced myocardial depression; experiment: Lysozyme-induced myocardial depression, in-vitro experiments; settings: previous in-vitro experiments
Excerpt: Usually, when one increases the blood pressure in septic shock, there is the potential for stroke-volume and cardiac out to fall, since the heart has to pump against a greater load. Particularly, in septic shock, cardiac function is depressed.

[3] = septic dogs n = 5, 3 hrs post treatment
[4] = septic dogs n = 5, 5 hrs post treatment
[5] = septic dogs n = 5, Baseline (before sepsis and treatment)
[6] = septic dogs n = 5, septic shock (before treatment)
[7] = septic dogs n = 5, 1 hr post treatment
[8] = septic dogs n = 5, 2 hrs post treatment
[9] = septic dogs n = 5, 4 hrs post treatment
[10] = septic dogs, ethyl-gallate treated group

CCOC(=O)c1cc(O)c(O)c(O)c1 [ethyl gallate]
duration of increase in mean arterial pressure after bolus ([1]; 2 gram intravenous bolus after 5 hours of septic shock, one animal): over 75 minutes | PCO2 [1, 3]: 21 ± 2*# mmHg | PCO2 [1, 4]: 19 ± 2* mmHg | PCO2 [1, 5]: 29 ± 4 mmHg | PCO2 [1, 6]: 27 ± 4 mmHg | duration of increase in MAP after bolus ([1]; bolus after the study was completed, one animal of placebo group): over 1 hr | time in which infusion increased arterial pressure ([1]; individual septic dog, FIG. 2): approximately 18 minutes | Urine-volume [1, 7]: 67 ± 58 mL | Urine-volume [1, 8]: 42 ± 19 mL | Urine-volume [1, 3]: 42 ± 19 mL | Urine-volume [1, 9]: 36 ± 26 mL | Urine-volume [1, 4]: 36 ± 26 mL | Urine-volume [1, 6]: 45 ± 34 mL | dogs that died over the course of the study ([1]; septic dogs): None | HR [1, 7]: 116 ± 47 beats/min | Ppa [1, 7]: 18 ± 4.8 mmHg | Rap [1, 7]: 8 ± 1.3 mmHg | HR [1, 8]: 111 ± 33 beats/min | Ppa [1, 8]: 18 ± 5 mmHg | Rap [1, 8]: 8.6 ± 1.7 mmHg | ALT [1, 3]: 210 ± 90 IU | AST [1, 3]: 268 ± 162 IU | Alk P'tase [1, 3]: 54 ± 36 international units | Arterial pH [1, 3]: 7.21 ± .08* | HR [1, 3]: 107 ± 34 beats/min | LD [1, 3]: 253 ± 172* IU | Platelets [1, 3]: 100 ± 37* ×10^9/L | Ppa [1, 3]: 21 ± 6 mmHg | Rap [1, 3]: 8.8 ± 0.8 mmHg | WBC [1, 3]: 2.1 ± 1.9 ×10^9/L | bilirubin [1, 3]: 11 ± 4.5* mmol/L | chloride [1, 3]: 130 ± 6* mmol/L | glucose [1, 3]: 4.4 ± 1.5 mmol/L | sodium [1, 3]: 152 ± 5 mmol/L | total CO2 [1, 3]: 14 ± 2* mmol/L | HR [1, 9]: 115 ± 36 beats/min | Ppa [1, 9]: 21 ± 9 mmHg | Rap [1, 9]: 9.2 ± 1.1 mmHg | ALT [1, 4]: 236 ± 56 IU | AST [1, 4]: 337 ± 141 IU | Alk P'tase [1, 4]: 91 ± 39* international units | Arterial pH [1, 4]: 7.14 ± .06* | HR [1, 4]: 110 ± 34 beats/min | LD [1, 4]: 335 ± 175* IU | Platelets [1, 4]: 74 ± 21* ×10^9/L | Ppa [1, 4]: 23 ± 7* mmHg | Rap [1, 4]: 8.6 ± 1.3 mmHg | WBC [1, 4]: 2.64 ± 2.3 ×10^9/L | chloride [1, 4]: 130 ± 7* mmol/L | glucose [1, 4]: 3.6 ± 2.2 mmol/L | sodium [1, 4]: 153 ± 6 mmol/L | total CO2 [1, 4]: 14 ± 2* mmol/L | ALT [1, 5]: 52 ± 20 IU | AST [1, 5]: 18 ± 4 IU | Alk P'tase [1, 5]: 31 ± 11 international units | HR [1, 5]: 59 ± 8* beats/min | LD [1, 5]: 26 ± 4 IU | Platelets [1, 5]: 196 ± 18 ×10^9/L | Ppa [1, 5]: 16 ± 1.3 mmHg | Rap [1, 5]: 9 ± 1.2 mmHg | WBC [1, 5]: 3.2 ± 1.9 ×10^9/L | chloride [1, 5]: 118 ± 3 mmol/L | glucose [1, 5]: 5.5 ± 0.3 mmol/L | sodium [1, 5]: 151 ± 2 mmol/L | total CO2 [1, 5]: 21 ± 3 mmol/L | ALT [1, 6]: 139 ± 116 IU | AST [1, 6]: 137 ± 130 IU | Alk P'tase [1, 6]: 41 ± 27 international units | Arterial pH [1, 6]: 7.26 ± .06* | HR [1, 6]: 145 ± 33 beats/min | LD [1, 6]: 128 ± 82 IU | Platelets [1, 6]: 117 ± 27* ×10^9/L | Ppa [1, 6]: 15 ± 2.3 mmHg | Rap [1, 6]: 7 ± 1.3 mmHg | WBC [1, 6]: 1.3 ± 0.7 ×10^9/L | chloride [1, 6]: 123 ± 8*+ mmol/L | glucose [1, 6]: 5.3 ± 0.3 mmol/L | sodium [1, 6]: 150 ± 7+ mmol/L | total CO2 [1, 6]: 18 ± 2* mmol/L | urine output ([1]; septic dogs, between the two groups): no difference | mean arterial pressure (MAP) ([1]; septic dogs, by 1 hour post-treatment, remained over the course of study): returned to the baseline value | serum haemoglobin concentration ([1]; septic dogs, end of the study, vs non-ethyl gallate treated group): higher | time post infusion by which increase in MAP was evident ([1]; septic dogs, ethyl gallate infusion): ≤ 20 min | cardiac output (CO) [1, 10]: did not fall | stroke volume (SV) [1, 10]: did not fall | stroke work (SW) ([1]; septic dogs, over the 5 post-treatment measurement intervals, vs non-treated group): generally higher | serum creatinine ([1]; septic dogs, over the course of the study): decreased | creatine kinase (CK), evidence of rhabdomyolysis ([1]; septic dogs, vs non-treated group): less | normal saline required to maintain Pwp at the baseline value ([1]; septic dogs, vs 4.7±0.8 L in non-treated group, P<0.05): 3.38 ± 0.8 L | systemic vascular resistance (SVR) ([1]; septic dogs, vs septic shock condition and vs non-treated septic group): significantly increased | prevention of lysozyme-induced myocardial depression [2]: prevents
